# Measurements taken from patent US4818770A, “Prevention of a plant disease by specific inhibition of fungal polyamine biosynthesis” (priority 1986, dated 1989).
# Experiments:
# [1] = molecular target: T1, arginase (Verticillium dahliae, UniProt G2WV09); assay: Arginase activity in mycelium extracts with DFMA as substrate; type: biochemical; details: mycelium of 12-day old cultures
# T1 construct: urea release from arginine or DFMA
# T1 sequence (G2WV09 1-327): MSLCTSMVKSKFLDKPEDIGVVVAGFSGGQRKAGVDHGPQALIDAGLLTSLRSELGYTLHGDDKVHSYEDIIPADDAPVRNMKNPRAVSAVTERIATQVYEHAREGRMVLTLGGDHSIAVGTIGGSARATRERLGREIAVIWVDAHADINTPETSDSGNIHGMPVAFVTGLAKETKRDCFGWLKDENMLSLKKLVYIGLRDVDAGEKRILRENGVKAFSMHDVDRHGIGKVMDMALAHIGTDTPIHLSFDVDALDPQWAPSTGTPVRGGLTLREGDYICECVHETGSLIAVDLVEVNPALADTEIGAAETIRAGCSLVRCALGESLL
# Description: Ornithine decarboxylase and ADCase activity determinations were carried out on 12-day-old mycelium of the fungus cultured on liquid Czapek-Dox medium containing 1% glucose as the carbon source.
# Ornithine decarboxylase and ADCase were assayed by the methods of Kaur-Sawhney et al. (4) using D,L-[1-14 C]ornithine and L-[U14 C]arginine as substrates for the respective enzymes. Arginase activity was determined by the methods of Schimke (9), using arginine and DFMA as substrates, and 1-phenyl-1,2-propanedione-2-oxime to detect the urea release by the enzyme. Controls for the arginase determinations were boiled mycelial extracts, and results were adjusted to compensate for readings obtained from substrate blanks. Protein determinations were by the […] method (1), using bovine serum albumin as a reference standard. Difluoromethylornithine and DFMA are products of Merrell-Dow, and are available from them. All other reagents were from Sigma Biochemicals. All experiments were replicated 3 times and repeated twice. Variaions within experiments were generally less than 5%.
# [2] = test system: Podosphaera leucotricha; assay: Infection of apple by powdery mildew; type: in vivo
# [3] = test system: Botrytis sp., B. cinerea, Rhizoctonia solani, Monilinia fructicola; details: cited from earlier work; for mycelial growth in vitro: Botrytis sp., B. cinerea, Rhizoctonia solani, Monilinia fructicola
# [4] = test system: Erysiphe graminis; assay: Wheat powdery mildew infection, colonies per plant
# Description: With wheat powdery mildew (E. graminis) 10-day-old seedlings were sprayed with solutions of DFMA or DFMO from 0.01 to 5.0 mM before and after inoculation of the plants with conidia. Inoculation occurred naturally in the greenhouse by distributing infected plants among the experimental plants for 24 hours. Infection was evaluated 10 days after inoculation by counting mildew colonies.
# [5] = test system: Uromyces phaseoli; assay: Translocation of protective effect in partially treated unifoliolate bean leaves; type: in vivo; details: for Lesions per cm^2, treated side / Lesions per cm^2, untreated side / Lesions per half leaf, treated side / Lesions per half leaf, untreated side: 1.0 mM on one longitudinal half leaf
# [6] = test system: tomato plants; assay: Effect on growth of uninoculated tomato plants; type: in vivo, Lycoperisicon esculentum; details: concentrations up to 20 mM; 28-day observation period
# [7] = test system: U. phaseoli; assay: Kinetics of bean rust inhibition by delayed postinoculation DFMO; type: in vivo, Uromyces phaseoli
# [8] = test system: U. phaseoli; assay: Bean rust severity after DFMO and polyamines alone or combined; type: in vivo, Uromyces phaseoli
# [9] = test system: U. phaseoli uredospores; assay: Uredospore germination on the surface of the unifoliolate bean leaf; type: in vivo, Uromyces phaseoli; details: sprayed 1 day before inoculation
# [10] = test system: Collectotrichum lagenarium; assay: Radial growth in vitro of cucumber anthracnose fungus; type: cell-based, Colletotrichum lagenarium
# Description: See Table 15 for the effect of DFMO on radial growth in vitro on cucumber anthracnose fungus (Colletcotrichum lagenarium). The cucumber anthracnose fungus growing in Czapek's agar in Petri plates is not affected by DFMO up to 5 mM.
# [11] = Tabor et al. (1985); cited from earlier work
# [12] = test system: Uromyces phaseoli; assay: Bean rust lesions on reinoculated trifoliolate leaves; details: for Lesions per cm^2 / Lesions per leaflet: reinoculated trifoliolate leaves
# Description: Trifoliolate leaves were reinoculated with pathogen after 1 week, before
# or after exposure to DFMO, to detect transfer of a protective effect to
# other parts of the plant.
# [13] = 1.0 mM DFMO sprayed 1 d after spore inoculation
# [14] = 1.0 mM DFMO sprayed 2 d after spore inoculation
# [15] = 1.0 mM DFMO sprayed 3 d after spore inoculation
# [16] = 1.0 mM DFMO sprayed 4 d after spore inoculation
# [17] = 1.0 mM DFMO sprayed 5 d after spore inoculation
# [18] = DFMO 0.05 mM alone, postinoculation
# [19] = postinoculation exposure, DFMO 0.05 mM
# [20] = postinoculation exposure, DFMO 0.1 mM
# [21] = postinoculation exposure, DFMO 0.5 mM
# [22] = postinoculation exposure, DFMO 1.0 mM
# [23] = postinoculation exposure, DFMO 5.0 mM
# [24] = preinoculation exposure, DFMO 0.05 mM
# [25] = preinoculation exposure, DFMO 0.1 mM
# [26] = preinoculation exposure, DFMO 0.5 mM
# [27] = preinoculation exposure, DFMO 1.0 mM
# [28] = preinoculation exposure, DFMO 5.0 mM
compound,measurement,setting,value
"N=C(N)NCCC[C@](N)(C(=O)O)C(F)F [DFMA, alpha-difluoromethylarginine]",arginase activity with DFMA as substrate,[1]; isolate TS-1B,7.1 pM urea/hr/mg protein
same,arginase activity with DFMA as substrate,[1]; isolate TS-2B,11.3 pM urea/hr/mg protein
same,Percent control,[2]; 1 mM,0.8%
same,Percent control,[2]; 5 mM,28.8%
same,Percent control,[2]; 10 mM,0.0%
same,control of apple powdery mildew,[2]; 1-10 mM applications,essentially ineffective
same,mycelial growth in vitro,[3],inhibited mycelial growth
same,relative inhibition of fungal growth in vitro,"[3]; Plant Cell Physiol. (1985), vol. 26, 683-692",more effective inhibitor of fungal growth than was DFMO
same,control of wheat powdery mildew infection,[4]; concentrations up to 5 mM,ineffective
"NCCCC(N)(C(=O)O)C(F)F (racemic) [DFMO, DL-alpha-difluorimethylornithine]",protection of the untreated half of the leaf,[5]; petiolar or apical half treated with 1 mM DFMO,the other half was also protected against infection
same,"Lesions per cm^2, treated side",[5]; postinoculation exposure,0 per cm^2
same,"Lesions per cm^2, untreated side",[5]; postinoculation exposure,0 per cm^2
same,"Lesions per half leaf, treated side",[5]; postinoculation exposure,0 per half leaf
same,"Lesions per half leaf, untreated side",[5]; postinoculation exposure,0 per half leaf
same,"Lesions per cm^2, treated side",[5]; preinoculation exposure,0 per cm^2
same,"Lesions per cm^2, untreated side",[5]; preinoculation exposure,22 ± 4 per cm^2
same,"Lesions per half leaf, treated side",[5]; preinoculation exposure,0 per half leaf
same,"Lesions per half leaf, untreated side",[5]; preinoculation exposure,617 ± 112 per half leaf
same,growth and development of uninoculated tomato plants,[6],no apparent effects on the growth and development of the plants
same,Lesions per cm^2,[7]; [13],0 per cm^2
same,Lesions per leaf,[7]; [13],0 per leaf
same,Lesions per cm^2,[7]; [14],0 per cm^2
same,Lesions per leaf,[7]; [14],0 per leaf
same,Lesions per cm^2,[7]; [15],0 per cm^2
same,Lesions per leaf,[7]; [15],0 per leaf
same,Lesions per cm^2,[7]; [16],41 ± 5 per cm^2
same,Lesions per leaf,[7]; [16],2330 ± 211 per leaf
same,Lesions per cm^2,[7]; [17],53 ± 4 per cm^2
same,Lesions per leaf,[7]; [17],3278 ± 326 per leaf
same,reduction of number of lesions,[8]; 0.05 mM DFMO alone,70%
same,Lesions per cm^2,[8]; [18],22 ± 4 per cm^2
same,Lesions per leaf,[8]; [18],1223 ± 268 per leaf
same,"Lesions per leaf, percent of control",[8]; [18],30% of control
same,inhibition at 50 µM,"[8]; Uromyces phaseoli, 0.05 mM DFMO, read-out: inhibition of uredial development",~50%
same,spore germination on leaf surface,[9]; lower concentrations of DFMO,partially inhibited
same,spore germination on leaf surface,[9]; more than 0.5 mM DFMO,completely inhibited
same,Percent control,[2]; 5 mM,48.6%
same,Radial growth (cm),[10]; 0.10 mM,4.5 cm
same,Radial growth (cm),[10]; 0.25 mM,4.5 cm
same,Radial growth (cm),[10]; 0.50 mM,4.5 cm
same,Radial growth (cm),[10]; 0.65 mM,4.4 cm
same,Radial growth (cm),[10]; 1.00 mM,4.0 cm
same,Radial growth (cm),[10]; 5.00 mM,3.8 cm
same,inhibition of growth at 650 µM,"[10]; Colletotrichum orbiculare, 0.65 mM, read-out: Percent control",2%
same,inhibition of growth at 1000 µM,"[10]; Colletotrichum orbiculare, 1.00 mM, read-out: Percent control",7%
same,inhibition of growth at 5000 µM,"[10]; Colletotrichum orbiculare, 5.00 mM, read-out: Percent control",16%
same,effect on fungus growing in Czapek's agar,[10]; up to 5 mM,not affected
same,mycelial growth in vitro,[3],inhibited mycelial growth
same,toxicity,[11],low toxicity
same,% control,"[4]; post-inoculation, 0.01 mM",19%
same,Colonies/plant,"[4]; post-inoculation, 0.01 mM",30 Colonies/plant
same,% control,"[4]; post-inoculation, 0.025 mM",30%
same,Colonies/plant,"[4]; post-inoculation, 0.025 mM",26 Colonies/plant
same,% control,"[4]; post-inoculation, 0.065 mM",46%
same,Colonies/plant,"[4]; post-inoculation, 0.065 mM",20 Colonies/plant
same,% control,"[4]; post-inoculation, 0.10 mM",68%
same,Colonies/plant,"[4]; post-inoculation, 0.10 mM",12 Colonies/plant
same,% control,"[4]; post-inoculation, 0.20 mM",68%
same,Colonies/plant,"[4]; post-inoculation, 0.20 mM",12 Colonies/plant
same,% control,"[4]; post-inoculation, 1.00 mM",76%
same,Colonies/plant,"[4]; post-inoculation, 1.00 mM",9 Colonies/plant
same,% control,"[4]; post-inoculation, 5.00 mM",89%
same,Colonies/plant,"[4]; post-inoculation, 5.00 mM",4 Colonies/plant
same,% control,"[4]; pre-inoculation, 0.01 mM",41%
same,Colonies/plant,"[4]; pre-inoculation, 0.01 mM",22 Colonies/plant
same,% control,"[4]; pre-inoculation, 0.025 mM",35%
same,Colonies/plant,"[4]; pre-inoculation, 0.025 mM",24 Colonies/plant
same,% control,"[4]; pre-inoculation, 0.065 mM",46%
same,Colonies/plant,"[4]; pre-inoculation, 0.065 mM",20 Colonies/plant
same,% control,"[4]; pre-inoculation, 0.10 mM",51%
same,Colonies/plant,"[4]; pre-inoculation, 0.10 mM",18 Colonies/plant
same,% control,"[4]; pre-inoculation, 0.20 mM",46%
same,Colonies/plant,"[4]; pre-inoculation, 0.20 mM",20 Colonies/plant
same,% control,"[4]; pre-inoculation, 1.00 mM",66%
same,Colonies/plant,"[4]; pre-inoculation, 1.00 mM",13 Colonies/plant
same,% control,"[4]; pre-inoculation, 5.00 mM",95%
same,Colonies/plant,"[4]; pre-inoculation, 5.00 mM",2 Colonies/plant
same,protection of newly emerged trifoliolate leaves,"[12]; 5.0 mM DFMO, reinoculated after 1 week",complete protection
same,Lesions per cm^2,[12]; [19],59 ± 1 per cm^2
same,Lesions per leaflet,[12]; [19],1246 ± 73 per leaflet
same,Lesions per cm^2,[12]; [20],58 ± 4 per cm^2
same,Lesions per leaflet,[12]; [20],1289 ± 131 per leaflet
same,Lesions per cm^2,[12]; [21],41 ± 4 per cm^2
same,Lesions per leaflet,[12]; [21],982 ± 84 per leaflet
same,Lesions per cm^2,[12]; [22],22 ± 2 per cm^2
same,Lesions per leaflet,[12]; [22],422 ± 13 per leaflet
same,Lesions per cm^2,[12]; [23],0 per cm^2
same,Lesions per leaflet,[12]; [23],0 per leaflet
same,Lesions per cm^2,[12]; [24],64 ± 5 per cm^2
same,Lesions per leaflet,[12]; [24],1458 ± 92 per leaflet
same,Lesions per cm^2,[12]; [25],55 ± 3 per cm^2
same,Lesions per leaflet,[12]; [25],1274 ± 120 per leaflet
same,Lesions per cm^2,[12]; [26],39 ± 7 per cm^2
same,Lesions per leaflet,[12]; [26],1172 ± 158 per leaflet
same,Lesions per cm^2,[12]; [27],16 ± 2 per cm^2
same,Lesions per leaflet,[12]; [27],320 ± 22 per leaflet
same,Lesions per cm^2,[12]; [28],0 per cm^2
same,Lesions per leaflet,[12]; [28],0 per leaflet
